In patent publication US20090311344A1, “Dosing Regimen” (priority 2008, published 2009):

Test: Multiple dose study in cancer subjects: treatment-emergent (serious) adverse events
Method: 46 subjects with cancer receiving platinum-based therapies were enrolled into 3 cohorts (N=16 in Cohort 1, 14 in Cohort 2, and 16 in Cohort 3). The subjects received the TPO mimetic peptide compound or placebo within 2 hours prior to the platinum-based chemotherapy on Day 1 of the first 2 cycles with a 21-day interval between each cycle. In addition to the Day 1 administration, gemcitabine administration was permitted on Day 8 of each cycle. Other chemotherapy medications were limited to dosing on Day 1 of each cycle only. Subjects were followed up for a total of 4 cycles of chemotherapy. Chemotherapy regimen continued beyond the first 4 cycles as per standard of care therapy. In the first cohort, 12 subjects received 1.5 μg/kg the TPO mimetic peptide compound and 4 subjects received placebo. In the second cohort 10 subjects received 3.0 μg/kg the TPO mimetic peptide compound and 4 subjects received placebo. In the third cohort, 12 subjects received 2.25 μg/kg the TPO mimetic peptide compound and 4 subjects received placebo. […] Therefore, a third cohort at a lower dose (2.25 μg/kg) was added to collect additional safety, tolerability, PD, and PK data.

With “Methoxypolyethyleneglycol20000-propionyl-L-Isoleucyl-L-Glutamyl-Glycyl-L-Prolyl-L-Threonyl-L-Leucyl-L-Arginyl-L-Glutaminyl-L-2-Naphthylalanyl-L-Leucyl-L-Alanyl-L-Alanyl-L-Arginyl-Sarcosyl-Ne-(methoxypolyethyleneglycol20000-propionyl-L-Isoleucyl-L-Glutamyl-Glycyl-L-Prolyl-L-Threonyl-L-Leucyl-L-Arginyl-L-Glutaminyl-L-2-Naphthylalanyl-L-Leucyl-L-Alanyl-L-Alanyl-L-Arginyl-Sarcosyl-)-Lysinamide [TPO mimetic peptide compound]” the “Adverse event: Musculoskeletal and connective tissue disorders” value (2.25 ug/kg, n of N = 12) was 1, the “Adverse event: Nausea” value (2.25 ug/kg, n of N = 12) was 2 and the “Adverse event: Neoplasms benign, malignant and unspecified (incl cysts and polyps)” value (2.25 ug/kg, n of N = 12) was 0. For the same substance, the “Adverse event: Nervous system disorders” value (2.25 ug/kg, n of N = 12) was 3, the “Adverse event: Neuropathy peripheral” value (2.25 ug/kg, n of N = 12) was 0 and the “Adverse event: Neutropenia” value (2.25 ug/kg, n of N = 12) was 4. The “Adverse event: Oedema” value (2.25 ug/kg, n of N = 12) was 1, the “Adverse event: Oedema peripheral” value (2.25 ug/kg, n of N = 12) was 0 and the “Adverse event: Pain” value (2.25 ug/kg, n of N = 12) was 0. For the same substance, the “Adverse event: Pain in extremity” value (2.25 ug/kg, n of N = 12) was 1, the “Adverse event: Paraesthesia” value (2.25 ug/kg, n of N = 12) was 0 and the “Adverse event: Peripheral motor neuropathy” value (2.25 ug/kg, n of N = 12) was 0. For the same substance, the “Adverse event: Peripheral sensory neuropathy” value (2.25 ug/kg, n of N = 12) was 0, the “Adverse event: Platelet count decreased” value (2.25 ug/kg, n of N = 12) was 0 and the “Adverse event: Psychiatric disorders” value (2.25 ug/kg, n of N = 12) was 2. For the same substance, the “Adverse event: Pyrexia” value (2.25 ug/kg, n of N = 12) was 3, the “Adverse event: Rash” value (2.25 ug/kg, n of N = 12) was 0 and the “Adverse event: Renal and urinary disorders” value (2.25 ug/kg, n of N = 12) was 1. For the same substance, the “Adverse event: Respiratory failure” value (2.25 ug/kg, n of N = 12) was 0, the “Adverse event: Respiratory, thoracic and mediastinal disorders” value (2.25 ug/kg, n of N = 12) was 3 and the “Adverse event: Skin and subcutaneous tissue disorders” value (2.25 ug/kg, n of N = 12) was 3. For the same substance, the “Adverse event: Stomatitis” value (2.25 ug/kg, n of N = 12) was 0, the “Adverse event: Tachycardia” value (2.25 ug/kg, n of N = 12) was 0 and the “Adverse event: Thrombocythaemia” value (2.25 ug/kg, n of N = 12) was 0. The “Adverse event: Thrombocytopenia” value (2.25 ug/kg, n of N = 12) was 0, the “Adverse event: Tinnitus” value (2.25 ug/kg, n of N = 12) was 0 and the “Adverse event: Vascular disorders” value (2.25 ug/kg, n of N = 12) was 2. The “Adverse event: Vomiting” value (2.25 ug/kg, n of N = 12) was 6, the “Adverse event: Weight decreased” value (2.25 ug/kg, n of N = 12) was 0 and the “Serious adverse event: Abdominal pain” value (2.25 ug/kg, n of N = 12) was 0. For the same substance, the “Serious adverse event: Acute myocardial infarction” value (2.25 ug/kg, n of N = 12) was 0, the “Serious adverse event: Anorexia” value (2.25 ug/kg, n of N = 12) was 0 and the “Serious adverse event: Atrial fibrillation” value (2.25 ug/kg, n of N = 12) was 0. The “Serious adverse event: Blood and lymphatic system disorders” value (2.25 ug/kg, n of N = 12) was 1, the “Serious adverse event: Blood creatinine increased” value (2.25 ug/kg, n of N = 12) was 1 and the “Serious adverse event: Cardiac disorders” value (2.25 ug/kg, n of N = 12) was 0. For the same substance, the “Serious adverse event: Cardiac failure” value (2.25 ug/kg, n of N = 12) was 0, the “Serious adverse event: Dehydration” value (2.25 ug/kg, n of N = 12) was 1 and the “Serious adverse event: Dyspnoea” value (2.25 ug/kg, n of N = 12) was 1. The “Serious adverse event: Fatigue” value (2.25 ug/kg, n of N = 12) was 0, the “Serious adverse event: Febrile neutropenia” value (2.25 ug/kg, n of N = 12) was 1 and the “Serious adverse event: Gastrointestinal disorders” value (2.25 ug/kg, n of N = 12) was 1. For the same substance, the “Serious adverse event: General disorders and administration site conditions” value (2.25 ug/kg, n of N = 12) was 0, the “Serious adverse event: Hyponatraemia” value (2.25 ug/kg, n of N = 12) was 2 and the “Serious adverse event: Investigations” value (2.25 ug/kg, n of N = 12) was 1. For the same substance, the “Serious adverse event: Lung abscess” value (2.25 ug/kg, n of N = 12) was 0, the “Serious adverse event: Metabolism and nutrition disorders” value (2.25 ug/kg, n of N = 12) was 2 and the “Serious adverse event: Nausea” value (2.25 ug/kg, n of N = 12) was 0. For the same substance, the “Serious adverse event: Neutropenia” value (2.25 ug/kg, n of N = 12) was 0, the “Serious adverse event: Pain” value (2.25 ug/kg, n of N = 12) was 0 and the “Serious adverse event: Pyrexia” value (2.25 ug/kg, n of N = 12) was 0. For the same substance, the “Serious adverse event: Respiratory failure” value (2.25 ug/kg, n of N = 12) was 0, the “Serious adverse event: Respiratory, thoracic and mediastinal disorders” value (2.25 ug/kg, n of N = 12) was 1 and the “Serious adverse event: Thrombocythaemia” value (2.25 ug/kg, n of N = 12) was 0. The “Serious adverse event: Thrombocytopenia” value (2.25 ug/kg, n of N = 12) was 0, the “Serious adverse event: Vomiting” value (2.25 ug/kg, n of N = 12) was 1 and the “Total no. subjects WITH ADVERSE EVENTS” value (2.25 ug/kg, n of N = 12) was 10. The “Total no. subjects WITH SERIOUS ADVERSE EVENTS” value (2.25 ug/kg, n of N = 12) was 3, the “Adverse event: Abdominal pain” value (3.0 ug/kg, n of N = 10) was 2 and the “Adverse event: Acute myocardial infarction” value (3.0 ug/kg, n of N = 10) was 0. The “Adverse event: Alanine aminotransferase increased” value (3.0 ug/kg, n of N = 10) was 1, the “Adverse event: Alopecia” value (3.0 ug/kg, n of N = 10) was 2 and the “Adverse event: Anemia” value (3.0 ug/kg, n of N = 10) was 1. The “Adverse event: Anorexia” value (3.0 ug/kg, n of N = 10) was 2, the “Adverse event: Anxiety” value (3.0 ug/kg, n of N = 10) was 0 and the “Adverse event: Arthralgia” value (3.0 ug/kg, n of N = 10) was 1. The “Adverse event: Aspartate aminotransferase increased” value (3.0 ug/kg, n of N = 10) was 1, the “Adverse event: Atrial fibrillation” value (3.0 ug/kg, n of N = 10) was 0 and the “Adverse event: Azotaemia” value (3.0 ug/kg, n of N = 10) was 0. For the same substance, the “Adverse event: Blood and lymphatic system disorders” value (3.0 ug/kg, n of N = 10) was 3, the “Adverse event: Blood creatinine increased” value (3.0 ug/kg, n of N = 10) was 1 and the “Adverse event: C-reactive protein increased” value (3.0 ug/kg, n of N = 10) was 1. The “Adverse event: Cancer pain” value (3.0 ug/kg, n of N = 10) was 0, the “Adverse event: Cardiac disorders” value (3.0 ug/kg, n of N = 10) was 0 and the “Adverse event: Cardiac failure” value (3.0 ug/kg, n of N = 10) was 0. For the same substance, the “Adverse event: Chills” value (3.0 ug/kg, n of N = 10) was 0, the “Adverse event: Confusional state” value (3.0 ug/kg, n of N = 10) was 0 and the “Adverse event: Constipation” value (3.0 ug/kg, n of N = 10) was 4. For the same substance, the “Adverse event: Cough” value (3.0 ug/kg, n of N = 10) was 0, the “Adverse event: Dehydration” value (3.0 ug/kg, n of N = 10) was 1 and the “Adverse event: Dermatitis acneiform” value (3.0 ug/kg, n of N = 10) was 0. The “Adverse event: Diabetes mellitus non-insulin-dependent” value (3.0 ug/kg, n of N = 10) was 0, the “Adverse event: Diarrhea” value (3.0 ug/kg, n of N = 10) was 1 and the “Adverse event: Dizziness” value (3.0 ug/kg, n of N = 10) was 0. For the same substance, the “Adverse event: Dry skin” value (3.0 ug/kg, n of N = 10) was 1, the “Adverse event: Dyspepsia” value (3.0 ug/kg, n of N = 10) was 0 and the “Adverse event: Dyspnoea” value (3.0 ug/kg, n of N = 10) was 0. For the same substance, the “Adverse event: Ear and labyrinth disorders” value (3.0 ug/kg, n of N = 10) was 1, the “Adverse event: Epistaxis” value (3.0 ug/kg, n of N = 10) was 1 and the “Adverse event: Eructation” value (3.0 ug/kg, n of N = 10) was 0.
